Values after ≈ are worked out from the molar mass of the structure shown.
Columns and labels:
[1] = Tmax in ICR mouse at 25 mg/kg, po measured upto 24 hrs by HPLC analysis; assay type: ADME, organism-based; conditions: in vivo
[2] = Cmax in ICR mouse at 25 mg/kg, po measured upto 24 hrs by HPLC analysis; assay type: ADME, organism-based; design: route oral, dose 25 mg/kg, time <=24; conditions: in vivo
[3] = AUC (0 to infinity) in ICR mouse at 25 mg/kg, po measured upto 24 hrs by HPLC analysis; assay type: ADME, organism-based; design: route oral, dose 25 mg/kg, time <=24; conditions: in vivo
[4] = Cytotoxicity against African green monkey Vero cells incubated for 72 hrs by MTT assay; assay type: cell-based; conditions: chlorocebus sabaeus
[5] = Half life in ICR mouse at 25 mg/kg, po measured upto 24 hrs by HPLC analysis; assay type: ADME, organism-based; conditions: in vivo
[6] = MRT in ICR mouse at 25 mg/kg, po measured upto 24 hrs by HPLC analysis; assay type: ADME, organism-based; conditions: in vivo
[7] = tested on: Mycobacterium tuberculosis; assay: Antimycobacterial activity against Mycobacterium tuberculosis H37Rv ATCC 27294 incubated for 7 days by microplate alamar blue assay; assay type: functional; conditions: H37Rv ATCC 27294, 168 h, time 7 day
hERG (KCNH2) = hERG (KCNH2) (Homo sapiens, UniProt Q12809); assay: Inhibition of human ERG expressed in HEK293 cells at 10 uM by whole cell patch clamp method relative to control; assay type: cell-based; conditions: HEK293 cells expressing hERG
hERG (KCNH2), sequence (Q12809 whole entry): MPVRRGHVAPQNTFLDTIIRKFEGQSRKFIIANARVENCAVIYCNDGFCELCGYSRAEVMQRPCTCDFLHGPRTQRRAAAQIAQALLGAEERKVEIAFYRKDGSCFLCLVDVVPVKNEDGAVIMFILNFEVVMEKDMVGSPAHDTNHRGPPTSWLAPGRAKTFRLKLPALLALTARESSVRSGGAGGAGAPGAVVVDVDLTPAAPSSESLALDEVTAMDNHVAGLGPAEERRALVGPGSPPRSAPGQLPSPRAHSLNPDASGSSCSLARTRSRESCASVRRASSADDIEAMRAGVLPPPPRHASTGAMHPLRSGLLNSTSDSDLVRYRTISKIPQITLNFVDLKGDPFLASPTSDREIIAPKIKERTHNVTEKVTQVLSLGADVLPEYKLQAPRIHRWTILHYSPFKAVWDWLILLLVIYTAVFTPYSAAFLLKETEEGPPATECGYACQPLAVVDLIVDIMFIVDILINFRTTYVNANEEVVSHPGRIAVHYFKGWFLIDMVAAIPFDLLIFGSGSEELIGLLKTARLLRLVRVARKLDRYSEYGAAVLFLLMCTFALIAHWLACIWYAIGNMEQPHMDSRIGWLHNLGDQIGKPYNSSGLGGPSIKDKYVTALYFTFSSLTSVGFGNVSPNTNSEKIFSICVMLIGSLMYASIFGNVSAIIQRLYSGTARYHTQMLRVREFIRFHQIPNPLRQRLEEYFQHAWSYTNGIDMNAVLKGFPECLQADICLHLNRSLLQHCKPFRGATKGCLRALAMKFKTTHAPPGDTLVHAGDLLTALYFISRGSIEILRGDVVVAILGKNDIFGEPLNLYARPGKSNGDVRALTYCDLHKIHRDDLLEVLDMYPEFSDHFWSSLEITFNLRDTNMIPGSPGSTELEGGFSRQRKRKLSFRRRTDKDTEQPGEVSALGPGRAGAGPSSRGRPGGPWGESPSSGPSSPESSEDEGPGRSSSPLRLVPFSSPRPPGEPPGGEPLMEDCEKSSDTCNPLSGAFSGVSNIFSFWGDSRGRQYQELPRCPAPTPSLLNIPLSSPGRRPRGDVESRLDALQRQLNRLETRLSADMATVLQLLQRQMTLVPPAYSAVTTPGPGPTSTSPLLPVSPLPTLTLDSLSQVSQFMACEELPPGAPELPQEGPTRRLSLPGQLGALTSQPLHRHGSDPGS

Row | Structure (SMILES) | CC50 at 72 h [4] [µg/mL] | MIC [7] [µg/mL] | other results
1 | CC(c1ccc(OC(F)(F)F)cc1)N(C)N1CCN(c2nc(=O)c3cc(C(F)(F)F)cc([N+](=O)[O-])c3s2)CC1 (stereo unspecified) | > 64 | < 0.016 | Tmax [1]: 0.833 h; Cmax [2]: 944 ng/mL; AUC(0-inf) [3]: 2870 ng·h/mL; half-life [5]: 3.89 h; MRT [6]: 2.66 h; inhibition at 10 µM (hERG (KCNH2)): 46.9%
2 | O=c1nc(N2CCN(NCCC3CCCCC3)CC2)sc2c([N+](=O)[O-])cc(C(F)(F)F)cc12 | > 64 | < 0.016 | inhibition at 10 µM (hERG (KCNH2)): 76.4%
3 | O=c1nc(NN2CCN(Cc3ccc(OC(F)(F)F)cc3)CC2)sc2c([N+](=O)[O-])cc(C(F)(F)F)cc12 | – | > 1 | –
4 | CC(NN1CCN(c2nc(=O)c3cc(C(F)(F)F)cc([N+](=O)[O-])c3s2)CC1)c1ccc(OC(F)(F)F)cc1 (stereo unspecified) | > 64 | < 0.016 | –
5 | O=c1nc(N2CCN(NS(=O)(=O)C3CCCCC3)CC2)sc2c([N+](=O)[O-])cc(C(F)(F)F)cc12 | – | > 1 | –
6 | Cc1cccc(F)c1CNN1CCN(c2nc(=O)c3cc(C(F)(F)F)cc([N+](=O)[O-])c3s2)CC1 | > 64 | < 0.016 | –
7 | O=c1nc(N2CCN(NCc3ccc(C(F)(F)F)cc3)CC2)sc2c([N+](=O)[O-])cc(C(F)(F)F)cc12 | > 64 | < 0.016 | –
8 | CON=C1CCC(NN2CCN(c3nc(=O)c4cc(C(F)(F)F)cc([N+](=O)[O-])c4s3)CC2)CC1 (stereo unspecified) | – | 0.028 (≈ 0.0559 µM) | –
9 | O=c1nc(N2CCN(Nc3ccc(C(F)(F)F)cc3)CC2)sc2c([N+](=O)[O-])cc(C(F)(F)F)cc12 | > 64 | < 0.016 | –
10 | O=c1nc(N2CCN(NCc3cc(F)cc(F)c3)CC2)sc2c([N+](=O)[O-])cc(C(F)(F)F)cc12 | > 64 | < 0.016 | –
11 | O=c1nc(N2CCN(NCc3ccc(F)cc3)CC2)sc2c([N+](=O)[O-])cc(C(F)(F)F)cc12 | > 64 | < 0.016 | –
12 | NN1CCN(c2nc(=O)c3cc(C(F)(F)F)cc([N+](=O)[O-])c3s2)CC1 | – | 0.941 (≈ 2.51 µM) | –
13 | CON=C1CCC(CNN2CCN(c3nc(=O)c4cc(C(F)(F)F)cc([N+](=O)[O-])c4s3)CC2)CC1 (stereo unspecified) | – | 0.057 (≈ 0.111 µM) | –
14 | O=c1nc(N2CCN(/N=C/c3ccc(OC(F)(F)F)cc3)CC2)sc2c([N+](=O)[O-])cc(C(F)(F)F)cc12 | > 64 | < 0.016 | inhibition at 10 µM (hERG (KCNH2)): 88.2%
15 | CN(CC1CCCCC1)N1CCN(c2nc(=O)c3cc(C(F)(F)F)cc([N+](=O)[O-])c3s2)CC1 | > 64 | < 0.016 | inhibition at 10 µM (hERG (KCNH2)): 54.6%
16 | O=c1nc(N2CCN(NCc3ccc(O)cc3)CC2)sc2c([N+](=O)[O-])cc(C(F)(F)F)cc12 | – | 0.9 (≈ 1.87 µM) | –
17 | CN(c1ccc(OC(F)(F)F)cc1)N1CCN(c2nc(=O)c3cc(C(F)(F)F)cc([N+](=O)[O-])c3s2)CC1 | > 64 | < 0.016 | Tmax [1]: 0.667 h; Cmax [2]: 1100 ng/mL; AUC(0-inf) [3]: 4700 ng·h/mL; half-life [5]: 3.6 h; MRT [6]: 4.34 h; inhibition at 10 µM (hERG (KCNH2)): 45.6%
18 | O=c1nc(NN2CCN(CC3CCCCC3)CC2)sc2c([N+](=O)[O-])cc(C(F)(F)F)cc12 | – | > 1 | –
19 | O=c1nc(N2CCN(NCC3CCCCC3)CC2)sc2c([N+](=O)[O-])cc(C(F)(F)F)cc12 | 29.3 (≈ 62.1 µM) | < 0.016 | inhibition at 10 µM (hERG (KCNH2)): 64.4%
20 | CO[C@H]1/C=C/O[C@@]2(C)Oc3c(C)c(O)c4c(O)c(c(/C=N/N5CCN(C)CC5)c(O)c4c3C2=O)NC(=O)/C(C)=C\C=C\[C@H](C)[C@H](O)[C@@H](C)[C@@H](O)[C@@H](C)[C@H](OC(C)=O)[C@@H]1C [RIFAMPIN] | – | 0.0382 (≈ 0.0464 µM) | –
21 | CC(C)CNN1CCN(c2nc(=O)c3cc(C(F)(F)F)cc([N+](=O)[O-])c3s2)CC1 | – | 0.0281 (≈ 0.0651 µM) | –
22 | O=C(NN1CCN(c2nc(=O)c3cc(C(F)(F)F)cc([N+](=O)[O-])c3s2)CC1)c1ccc(C(F)(F)F)cc1 | – | 0.589 (≈ 1.08 µM) | –
23 | O=c1nc(N2CCN(NCC3CCCC3)CC2)sc2c([N+](=O)[O-])cc(C(F)(F)F)cc12 | > 64 | < 0.016 | –

Row | Structure (SMILES) | CC50 at 72 h [4] [µg/mL] | MIC [7] [µg/mL] | other results
24 | O=c1nc(NN2CCN(Cc3ccncc3)CC2)sc2c([N+](=O)[O-])cc(C(F)(F)F)cc12 | – | > 1 | –
25 | O=c1nc(N2CCN(NCc3ccc(OC(F)(F)F)cc3)CC2)sc2c([N+](=O)[O-])cc(C(F)(F)F)cc12 | > 64 | < 0.016 | inhibition at 10 µM (hERG (KCNH2)): 71.1%
26 | O=c1nc(N2CCN(NCc3ccc(Cl)cc3)CC2)sc2c([N+](=O)[O-])cc(C(F)(F)F)cc12 | > 64 | < 0.016 | –
27 | CON=C1CCC(N(C)N2CCN(c3nc(=O)c4cc(C(F)(F)F)cc([N+](=O)[O-])c4s3)CC2)CC1 (stereo unspecified) | > 64 | < 0.016 | Tmax [1]: 0.5 h; Cmax [2]: 5140 ng/mL; AUC(0-inf) [3]: 15800 ng·h/mL; half-life [5]: 4.09 h; MRT [6]: 3.89 h; inhibition at 10 µM (hERG (KCNH2)): 22.7%
28 | C/C(=N\N1CCN(c2nc(=O)c3cc(C(F)(F)F)cc([N+](=O)[O-])c3s2)CC1)c1ccc(OC(F)(F)F)cc1 | > 64 | < 0.016 | –
29 | CON=C1CCC(CN(C)N2CCN(c3nc(=O)c4cc(C(F)(F)F)cc([N+](=O)[O-])c4s3)CC2)CC1 (stereo unspecified) | – | 0.025 (≈ 0.0473 µM) | –
30 | O=c1nc(N2CCN(Nc3ccc(OC(F)(F)F)cc3)CC2)sc2c([N+](=O)[O-])cc(C(F)(F)F)cc12 | > 64 | < 0.016 | inhibition at 10 µM (hERG (KCNH2)): 55.5%
31 | O=C(C1CCCCC1)N1CCN(Nc2nc(=O)c3cc(C(F)(F)F)cc([N+](=O)[O-])c3s2)CC1 | – | > 1 | –
32 | Cc1ccc(CNN2CCN(c3nc(=O)c4cc(C(F)(F)F)cc([N+](=O)[O-])c4s3)CC2)cc1 | > 64 | < 0.016 | –
33 | NNC(=O)c1ccncc1 [ISONIAZID] | – | 0.0366 (≈ 0.267 µM) | –
34 | O=c1nc(N2CCN(NCc3cccc(C(F)(F)F)c3)CC2)sc2c([N+](=O)[O-])cc(C(F)(F)F)cc12 | > 64 | < 0.016 | –
35 | O=C(NN1CCN(c2nc(=O)c3cc(C(F)(F)F)cc([N+](=O)[O-])c3s2)CC1)c1ccc(OC(F)(F)F)cc1 | – | 0.965 (≈ 1.71 µM) | –
36 | O=c1nc(N2CCN(NCc3cccnc3)CC2)sc2c([N+](=O)[O-])cc(C(F)(F)F)cc12 | – | 0.228 (≈ 0.489 µM) | –
37 | O=c1nc(N2CCN(NC3CCCCC3)CC2)sc2c([N+](=O)[O-])cc(C(F)(F)F)cc12 | > 64 | < 0.016 | Tmax [1]: 0.583 h; Cmax [2]: 1960 ng/mL; AUC(0-inf) [3]: 4430 ng·h/mL; half-life [5]: 1.28 h; MRT [6]: 1.47 h; inhibition at 10 µM (hERG (KCNH2)): 20.4%
38 | CCC(CC)CN(CC(CC)CC)N1CCN(c2nc(=O)c3cc(C(F)(F)F)cc([N+](=O)[O-])c3s2)CC1 | – | 0.49 (≈ 0.902 µM) | –
39 | O=C(NN1CCN(c2nc(=O)c3cc(C(F)(F)F)cc([N+](=O)[O-])c3s2)CC1)C1CCCCC1 | – | 0.473 (≈ 0.974 µM) | –
40 | CC(C)(C)c1ccc(CNN2CCN(c3nc(=O)c4cc(C(F)(F)F)cc([N+](=O)[O-])c4s3)CC2)cc1 | > 64 | < 0.016 | –
41 | CC(C)CN(CC(C)C)N1CCN(c2nc(=O)c3cc(C(F)(F)F)cc([N+](=O)[O-])c3s2)CC1 | > 64 | < 0.016 | –
42 | O=c1nc(N2CCN(NCc3ccc(Br)cc3)CC2)sc2c([N+](=O)[O-])cc(C(F)(F)F)cc12 | > 64 | < 0.016 | –
43 | O=c1nc(N2CCN(CC3CCCCC3)CC2)sc2c([N+](=O)[O-])cc(C(F)(F)F)cc12 [MACOZINONE] | > 64 | < 0.016 | –
44 | COc1ccc(CNN2CCN(c3nc(=O)c4cc(C(F)(F)F)cc([N+](=O)[O-])c4s3)CC2)cc1 | > 64 | < 0.016 | –
45 | O=c1nc(N2CCN(N(CC3CCCC3)CC3CCCC3)CC2)sc2c([N+](=O)[O-])cc(C(F)(F)F)cc12 | – | 0.0803 (≈ 0.149 µM) | –

— ChEMBL document CHEMBL4814047, “Design, synthesis and biological activity of N-(amino)piperazine-containing benzothiazinones against Mycobacterium tuberculosis” (Eur J Med Chem, 2021)
